Type in all cases: cell-based
Settings in all cases: 24 h or 48 h after addition, unit inferred

In one experiment the test system is A549. Description: In vitro inhibition test for cancer cell proliferation (MTT), A549.
The next experiment concerns HeLa. The experiment can be described thus: In vitro inhibition test for cancer cell proliferation (MTT), HeLa.
The subject of the next experiment is L929. Description: In vitro cell proliferation inhibition test (MTT), L929.
Another experiment deals with MCF-7. The experiment can be described thus: In vitro inhibition test for cancer cell proliferation (MTT), MCF-7.

24 compounds from patent US20250163002A1, “FUSED QUINONOXIME IMIDAZOLE, ONIUM DERIVATIVES THEREOF, PREPARATION AND USE THEREOF” (SHANGHAI JIAO TONG UNIVERSITY, priority 2022, published 2025) can be followed below.

Counter-ions that a name gives are not always drawn.

By IC50 is commonly meant the point on the concentration scale where inhibition reaches its midpoint. Higher therefore signals lower potency. For the compound `C[n+]1cn(-c2ccc(F)c(Cl)c2)c2c1/C(=N/O)c1ccccc1C2=O` [Compound 116, (E)-1-(3-chloro-4-fluorophenyl)-4-(hydroxylimino)-3-methyl-9-oxo-4,9-dihydro-1H-naphthol[2,3-d]imidazole-3-iodide], the IC50 in the experiment with A549 was 2.3 µM; in the experiment with HeLa it was above 100 µM; in the experiment on L929, above 100 µM; with MCF-7, above 100 µM.

`C[n+]1cn(-c2ccc(F)c(Br)c2)c2c1/C(=N/O)c1ccccc1C2=O` [Compound 117, (E)-1-(3-bromo-4-fluorophenyl)-4-(hydroxylimino)-3-methyl-9-oxo-4,9-dihydro-1H-naphthol[2,3-d]imidazole-3-iodide]: the IC50 in the experiment on A549 is 5.2 µM; in the experiment on HeLa it was 87.8 µM; in the experiment with L929, above 100 µM; in the experiment on MCF-7 it was 67.7 µM.

On to `Cn1c[n+](C)c2c1C(=O)c1cccc([N+](=O)[O-])c1/C2=N\O` [Compound 118, (E)-4-(hydroxylimino)-1,3-dimethyl-5-nitro-9-oxo-4,9-dihydro-1H-naphthol[2,3-d]imidazole-3-iodide], for which the IC50 in the experiment on A549 stood at 0.54 µM; with HeLa it was 0.78 µM; in the experiment with L929, 12.9 µM; in the experiment with MCF-7, 0.89 µM.

In the case of `CCCCn1c[n+](C)c2c1C(=O)c1ccccc1C2=NOC` [Compound 119, (E) and (Z)-1-butyl-4-(methoxylimino)-3-methyl-9-oxo-4,9-dihydro-1H-naphthol[2,3-d]imidazole-3-iodide], the IC50 in the experiment on A549 was 0.52 µM; in the experiment on HeLa, 33 µM; in the experiment with L929, 4.6 µM; in the experiment with MCF-7, 18.1 µM.

As for `CCCCn1c[n+](C)c2c1C(=O)c1ccccc1C2=NOCC` [Compound 120, (E) and (Z)-1-butyl-4-(ethoxylimino)-3-methyl-9-oxo-4,9-dihydro-1H-naphthol[2,3-d]imidazole-3-iodide], the IC50 in the experiment with A549 is 0.69 µM; with HeLa, 26 µM; in the experiment on L929, above 100 µM; in the experiment with MCF-7, 13 µM.

Take `CCCCn1c[n+](C)c2c1C(=O)c1ccccc1C2=NOCc1ccccc1` [Compound 121, (E) and (Z)-4-((benzyloxy)imino)-1-butyl-3-methyl-9-oxo-4,9-dihydro-1H-naphthol[2,3-d]imidazole-3-iodide]: the half-inhibitory concentration (IC50) in the experiment on A549 worked out at 0.09 µM; in the experiment with HeLa, 28 µM; in the experiment with L929, 61 µM; with MCF-7, 6.8 µM.

Consider `CCCCn1c[n+](CC)c2c1C(=O)c1ccccc1C2=NOC` [Compound 122, (E) and (Z)-1-butyl-3-ethyl-4-(methoxylimino)-9-oxo-4,9-dihydro-1H-naphthol[2,3-d]imidazole-3-iodide], for which the 50% inhibitory concentration (IC50) in the experiment on A549 is 1.8 µM; in the experiment on HeLa it was 52 µM; in the experiment with L929, above 100 µM; with MCF-7, 33 µM.

Turning to `CC[n+]1cn(C)c2c1C(=NOC)c1ccccc1C2=O` [Compound 126, (E) and (Z)-3-ethyl-4-(methoxylimino)-1-methyl-9-oxo-4,9-dihydro-1H-naphthol[2,3-d]imidazole-3-iodide], the IC50 in the experiment on A549 is 0.59 µM; in the experiment with HeLa, 39 µM; in the experiment with L929, 85.2 µM; with MCF-7 it was 12.2 µM.

In the case of `CC(C)CON=C1c2ccccc2C(=O)c2c1[n+](C)cn2C` [Compound 129, (E) and (Z)-4-(isobutoxyimino)-1,3-dimethyl-9-oxo-4,9-dihydro-1H-naphthol[2,3-d]imidazole-3-iodide], the IC50 with A549 worked out at 0.07 µM; in the experiment on HeLa it was 8.7 µM; in the experiment with L929 it was 26.4 µM; in the experiment on MCF-7, 12.1 µM.

`Cn1c[n+](C)c2c1C(=O)c1ccccc1C2=NOC(C)(C)C` [Compound 130, (E) and (Z)-4-(tert-butoxyimino)-1,3-dimethyl-9-oxo-4,9-dihydro-1H-naphthol[2,3-d]imidazole-3-iodide]: the IC50 was 0.6 µM in the experiment with A549, 48.4 µM with HeLa, above 100 µM with L929 and 56.2 µM with MCF-7.

For the compound `Cn1c[n+](C)c2c1C(=O)c1ccccc1C2=NOCC1CC1` [Compound 131, (E) and (Z)-4-((cyclopropylmethoxy)imino)-1,3-dimethyl-9-oxo-4,9-dihydro-1H-naphthol[2,3-d]imidazole-3-iodide], the IC50 came out at 0.07 µM in the experiment with A549, 21 µM in the experiment on HeLa, 24.7 µM with L929 and 9.9 µM with MCF-7.

Turning to `C=CCON=C1c2ccccc2C(=O)c2c1[n+](C)cn2C` [Compound 132, (E) and (Z)-4-((allyloxy)imino)-1,3-dimethyl-9-oxo-4,9-dihydro-1H-naphthol[2,3-d]imidazole-3-iodide], the IC50 is 0.06 µM in the experiment with A549, 46.3 µM in the experiment with HeLa, 2.4 µM with L929 and 56.1 µM in the experiment on MCF-7.

`COc1ccc(CON=C2c3ccccc3C(=O)c3c2[n+](C)cn3C)cc1` [Compound 133, (E) and (Z)-4-(((4-methoxybenzyl)oxy)imino)-1,3-dimethyl-9-oxo-4,9-dihydro-1H-naphthol[2,3-d]imidazole-3-iodide]: the IC50 came to 0.08 µM in the experiment with A549, 23.9 µM in the experiment with HeLa, 16 µM in the experiment with L929 and 17.9 µM with MCF-7.

Take `Cn1c[n+](C)c2c1C(=O)c1ccccc1C2=NOCc1ccc(Cl)cc1` [Compound 134, (E) and (Z)-4-(((4-chlorobenzyl)oxy)imino)-1,3-dimethyl-9-oxo-4,9-dihydro-1H-naphthol[2,3-d]imidazole-3-iodide]: the IC50 with A549 came out at 0.07 µM; in the experiment on HeLa, 17.5 µM; with L929 it was 4.9 µM; with MCF-7, 25.6 µM.

As for `Cn1c[n+](C)c2c1C(=O)c1ccccc1C2=NOCc1ccc(C(F)(F)F)cc1` [Compound 135, (E) and (Z)-1,3-dimethyl-9-oxo-4-(((4-(trifluoromethyl)benzyl)oxy)imino)-4,9-dihydro-1H-naphthol[2,3-d]imidazole-3-iodide], the IC50 was 0.16 µM with A549, 45.4 µM in the experiment on HeLa, 4.03 µM with L929 and 34.9 µM with MCF-7.

For `Cn1c[n+](C)c2c1C(=O)c1ccccc1C2=NOCc1ccc(F)cc1` [Compound 136, (E) and (Z)-4-(((4-fluorobenzyl)oxy)imino)-1,3-dimethyl-9-oxo-4,9-dihydro-1H-naphthol[2,3-d]imidazole-3-iodide], the IC50 with A549 turned out to be 0.06 µM; with HeLa, 23.9 µM; in the experiment with L929, 4.4 µM; in the experiment on MCF-7 it was 29.8 µM.

Consider `Cn1c[n+](C)c2c1C(=O)c1ccccc1C2=NOCc1c(F)c(F)c(F)c(F)c1F` [Compound 137, (E) and (Z)-1,3-dimethyl-9-oxo-4-(((perfluorophenyl)methoxy)imino)-4,9-dihydro-1H-naphthol[2,3-d]imidazole-3-iodide], for which the IC50 in the experiment with A549 amounted to 0.05 µM; in the experiment with HeLa, 15.4 µM; in the experiment with L929, 9.7 µM; with MCF-7, 24.8 µM.

For the compound `Cn1c[n+](C)c2c1C(=O)c1ccccc1C2=NOCc1ccccc1` [Compound 138, (E) and (Z)-4-((benzyloxy)imino)-1,3-dimethyl-9-oxo-4,9-dihydro-1H-naphthol[2,3-d]imidazole-3-iodide], the IC50 in the experiment on A549 was 0.004 µM; with HeLa, 4.2 µM; in the experiment on L929 it was 25.9 µM; in the experiment on MCF-7, 5.9 µM.

For `Cn1c[n+](C)c2c1C(=O)c1ccccc1C2=NOCc1ccccc1` [Compound 139, (E) and (Z)-4-((benzyloxy)imino)-1,3-dimethyl-9-oxo-4,9-dihydro-1H-naphthol[2,3-d]imidazole-3-p-toluenesulfonamide], the concentration for half-maximal inhibition (IC50) in the experiment on A549 was 0.005 µM; in the experiment with HeLa, 6.8 µM; in the experiment with L929, 19.9 µM; in the experiment with MCF-7, 8.6 µM.

Turning to `Cn1c[n+](C)c2c1C(=O)c1ccccc1C2=NOCc1ccccc1` [Compound 140, (E) and (Z)-4-((benzyloxy)imino)-1,3-dimethyl-9-oxo-4,9-dihydro-1H-naphthol[2,3-d]imidazole-3-dimethyl sulfate], the IC50 in the experiment with A549 worked out at 0.007 µM; with HeLa it was 9.8 µM; in the experiment on L929, 34.5 µM; with MCF-7, 10.9 µM.

On to `Cn1c[n+](C)c2c1C(=O)c1ccccc1C2=NOCc1ccc([N+](=O)[O-])cc1` [Compound 141, (E) and (Z)-1,3-dimethyl-4-(((4-nitrobenzyl)oxy)imino)-9-oxo-4,9-dihydro-1H-naphthol[2,3-d]imidazole-3-iodide], for which the half-inhibitory concentration (IC50) with A549 worked out at 0.05 µM; in the experiment on HeLa it was 23.9 µM; in the experiment with L929, 23.4 µM; in the experiment with MCF-7, 45.6 µM.

Take `Cn1c[n+](C)c2c1C(=O)c1ccccc1C2=NOc1ccccc1` [Compound 142, (E) and (Z)-4-((phenoxy)imino)-1,3-dimethyl-9-oxo-4,9-dihydro-1H-naphthol[2,3-d]imidazole-3-iodide]: the IC50 came out at 0.06 µM in the experiment with A549, 34 µM with HeLa, 61.3 µM in the experiment on L929 and 43.5 µM in the experiment on MCF-7.

`Cn1c[n+](C)c2c1C(=O)c1ccccc1/C2=N\OCC1OCCO1` [Compound 143, (E)-4-(((1,3-dioxoheterocycle-2-yl)methoxy)imino)-1,3-dimethyl-9-oxo-4,9-dihydro-1H-naphthol[2,3-d]imidazole-3-iodide]: the concentration for half-maximal inhibition (IC50) in the experiment with A549 was 0.03 µM; in the experiment on HeLa, 25.8 µM; with L929, 34.8 µM; in the experiment on MCF-7, 34.9 µM.

As to `COCCO/N=C1\c2ccccc2C(=O)c2c1[n+](C)cn2C` [Compound 144, (E)-4-((2-methoxyethoxy)imino)-1,3-dimethyl-9-oxo-4,9-dihydro-1H-naphthol[2,3-d]imidazole-3-iodide], the concentration for half-maximal inhibition (IC50) with A549 was 0.06 µM; in the experiment with HeLa, 23.3 µM; in the experiment on L929 it was 46.6 µM; in the experiment on MCF-7 it was 33 µM.
